Laboratory results taken from patent US20170049843A1, “Hepatocyte Growth Factor Mimics as Therapeutic Agents” (WASHINGTON STATE UNIVERSITY, priority 2011, published 2017).
Structures can show the parent of a compound that is named as a salt. Where a SMILES comes first, the peptide text is derived from it. Where no end group is shown, it is not given here. [ ]: non-standard residue; d: D form. dNle = CCCC[C@@H](N)C(=O)O; Ahx = NCCCCCC(=O)O; GABA = NCCCC(=O)O

Assays:
[1] = system: scopolamine treated rats; assay: Morris water maze, scopolamine amnesia model; format: in vivo, rat; conditions: for mean latency to find the pedestal, final day of training / mean latency to find the pedestal, fourth day of training / mean latency to find the pedestal, day one of training: icv, scopolamine 70 nmol, Dihexa 300 pmol, Hinge 300 pmol; for mean latency to find the pedestal, final day of training / mean latency to find the pedestal, fourth day of training: vehicle 43.0 s; for mean latency to find the pedestal, day one of training: vehicle 89.3 s
[2] = system: hippocampal neurons; assay: Spinogenesis in mRFP-β-actin transfected dissociated hippocampal neurons; format: cell-based, rat
Experimental: Hippocampal neurons ([…] cells per square cm) were cultured from P1 Sprague Dawley rats on plates coated with poly-L-lysine from Sigma (St. Louis, Mo.; molecular weight 300,000). Hippocampal neurons were maintained in Neurobasal A media from Invitrogen (Carlsbad, Calif.) supplemented with B27 from Invitrogen, 0.5 mM L-glutamine, and […] cytosine-D-arabinofuranoside from Sigma added at 2 days in vitro. Hippocampal neurons were then cultured a further 3-7 days, at which time they were either transfected or treated with various pharmacological reagents as described in (Wayman, Davare et al. 2008).
Neurons were transfected with mRFP-β-actin on day in vitro 6 (DIV6) using LipofectAMINE™ 2000 (Invitrogen) according to the manufacturer's protocol. This protocol yielded the desired 3-5% transfection efficiency thus enabling the visualization of individual neurons. Higher efficiencies obscured the dendritic arbor of individual neurons. Expression of fluorescently tagged actin allowed clear visualization of dendritic spines, as dendritic spines are enriched in actin. On DIV7 the cells were treated with vehicle (H20) or peptides (as described in the text) added to media. On DIV12 the neurons were fixed (4% paraformaldehyde, 3% sucrose, 60 mM PIPES, 25 mM HEPES, 5 mM EGTA, 1 mM MgCl2, pH 7.4) for 20 min at room temperature and mounted. Slides were dried for at least 20 hours at 4° C. and fluorescent images were obtained with Slidebook 4.2 Digital Microscopy Software driving an Olympus IX81 inverted confocal microscope with a 60× oil immersion lens, NA 1.4 and resolution 0.280 μm Dendritic spine density was measured on primary and secondary dendrites at a distance of at least 150 μm from the soma. Five 50 μm long segments of dendrite from at least 10 neurons per data point were analyzed for each data point reported. Each experiment was repeated at least three times using independent culture preparations. Dendrite length was determined using the National Institutes of Health's Image J 1.41o program (NIH, Bethesda, Md.) and the neurite tracing program Neuron J (Meijering, Jacob et al. 2004) Spines were manually counted.
Hippocampal neurons (2×10^5 cells per square centimeter) were cultured from P1-2 Sprague Dawley rats on plates coated with poly-L-lysine from Sigma (St. Louis, Mo.; molecular weight 300,000). Hippocampal neurons were maintained in Neurobasal A media from Invitrogen (Carlsbad, Calif.) supplemented with B27 from Invitrogen, 0.5 mM L-glutamine, and […] cytosine-D-arabinofuranoside from Sigma added at 2 days in vitro. Hippocampal neurons were then cultured a further 3-7 days, at which time they were either transfected or treated with various pharmacological reagents as described in the text or figure legends.

[3] = system: hippocampal neurons; assay: Whole-cell recordings of mEPSCs in dissociated hippocampal neurons; format: cell-based, rat; parameters: mean mEPSC frequency: unit not given beside the values; conditions: 5 days; Hinge 10^−12 M, HGF 10 ng/ml, Dihexa 10^−12 M, alone or combined; vehicle 5.31±0.35
[4] = system: MDCK cells; assay: Inhibition of HGF-dependent scattering in MDCK cells; format: cell-based, canine; conditions: for inhibition of HGF-dependent scattering in MDCK cells: HGF 20 ng/ml, 48 h
Experimental: (§1) MDCK cells were grown to 100% confluency on the coverslips in six-well plates and washed twice with PBS. The confluent coverslips were then aseptically transferred to new six well plates containing 900 μl serum free DMEM. Norleual, Hinge peptide, and/or HGF (20 ng/ml) were added to appropriate wells. Control wells received PBS vehicle. Plates were incubated at 37° C. with 5% CO2 for 48 hours. Media was removed and cells were fixed with methanol. Cells were stained with Diff-Quik Wright-Giemsa (Dade-Behring, Newark, Del.) and digital images were taken. Coverslips were removed with forceps and more digital images were captured. Pixel quantification of images was achieved using Image J and statistics were performed using Prism 5 and InStat v.3.05.
as §1, with “h.” for “hours.”, “v.3.05 (GraphPad; San Diego, Calif.).” for “v.3.05.”

[5] = target: T1, HGF (Homo sapiens, UniProt P14210); assay: HGF binding, competition with 3H-Hinge
T1 construct: purchased R&D Systems (Minneapolis, Minn.)
T1 sequence (P14210 32-728): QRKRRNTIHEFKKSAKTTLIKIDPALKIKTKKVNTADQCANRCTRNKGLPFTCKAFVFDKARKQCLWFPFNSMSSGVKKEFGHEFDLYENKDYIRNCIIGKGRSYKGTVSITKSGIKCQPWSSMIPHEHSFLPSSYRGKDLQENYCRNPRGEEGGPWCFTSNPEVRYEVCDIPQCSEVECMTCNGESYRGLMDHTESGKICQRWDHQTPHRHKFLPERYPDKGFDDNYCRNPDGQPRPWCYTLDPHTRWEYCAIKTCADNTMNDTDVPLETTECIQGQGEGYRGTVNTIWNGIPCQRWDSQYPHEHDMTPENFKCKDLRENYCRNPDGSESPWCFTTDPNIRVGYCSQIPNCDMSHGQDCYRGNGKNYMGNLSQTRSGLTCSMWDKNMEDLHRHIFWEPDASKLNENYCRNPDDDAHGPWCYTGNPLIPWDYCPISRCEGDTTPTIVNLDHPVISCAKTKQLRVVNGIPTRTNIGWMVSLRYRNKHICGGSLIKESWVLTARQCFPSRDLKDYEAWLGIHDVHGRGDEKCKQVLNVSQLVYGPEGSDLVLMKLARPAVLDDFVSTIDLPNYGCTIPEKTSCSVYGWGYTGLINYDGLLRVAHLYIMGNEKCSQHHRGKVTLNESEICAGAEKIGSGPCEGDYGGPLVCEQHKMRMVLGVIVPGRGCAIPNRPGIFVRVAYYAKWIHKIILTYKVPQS
Experimental: The binding of 6-AH analogs to HGF was assessed by competition using a soluble binding assay. 250 μl of PBS containing human HGF (1.25 ng) were incubated with ^3H-Hinge, the central dimerization domain of HGF, in the presence of varying concentrations of 6-AH analogs between 10^−13 M to 10^−7M (half-log dilutions) for 40 min at 37° C. The incubates were then spun through Bio-Gel P6 spin columns (400 μl packed volume) for 1 min to separate free and bound ^3H-Hinge and the eluent was collected. Five milliliters of scintillation fluid was added to the eluent, which contained the HGF bound ^3H-Hinge, and was then counted using scintillation counter. Total disintegrations per minute of bound ^3H-Hinge were calculated based on machine counting efficiency. The Ki values for the binding of the peptides were determined using the Prism 5. Competition binding curves were performed in triplicate.

[6] = target: T1, HGF; assay: HGF dimerization; format: biochemical; conditions: analog at 10^−10M, 30 minute incubation with heparin
Experimental: HGF dimerization was assessed using PAGE followed by silver staining (Kawas et al., 2011). Human HGF at a concentration of 0.08 ng/μl with or without 6-AH analogs was incubated with heparin at a final concentration of 5 μg/ml. Loading buffer was then added to each sample and the mixture separated by native PAGE using gradient Criterion XT precast gels (4-12% Bis-Tris; Biorad Laboratories, Hercules, Calif.). Next the gel was silver stained for the detection of the HGF monomers and dimers. Bands were quantitated from digital images using a UVP phosphoimager (Upland, Calif.).

[7] = system: Met; assay: Inhibition of HGF-dependent Met phosphorylation in HEK293 cells; format: cell-based, human; conditions: 10 min
Experimental: HEK293 cells were seeded in 6 well tissue culture plates and grown to 95% confluency in DMEM containing 10% FBS. The cells were serum deprived for 24 h prior to the treatment to reduce the basal levels of phospho-Met. Following serum starvation, cocktails comprised of vehicle and HGF with/without 6-AH analogs were prepared and pre-incubated for 30 min at room temperature. The cocktail was then added to the cells for 10 min to stimulate the Met receptor and downstream proteins. Cells were harvested using RIPA lysis buffer (Millipore; Billerica, Mass.) fortified with phosphatase inhibitor cocktails 1 and 2 (Sigma-Aldrich; St. Louis, Mo.). The lysate was clarified by centrifugation at 15,000 n×g for 15 min, protein concentrations were determined using the BCA total protein assay (Pierce), and then appropriate volumes of the lysates were diluted with 2× reducing Laemmli buffer and heated for ten min at 95° C. Samples containing identical amounts of protein were resolved using SDS-PAGE (Criterion, BioRad Laboratories), transferred to nitrocellulose, and blocked in Tris-buffered saline (TBS) containing 5% milk for 1 h at room temperature. The phospho-Met antibody were added to the blocking buffer at a final concentration of 1:1000 and incubated at 4° C. overnight with gentle agitation. The membranes were then washed several times with water and TBS ([…]), a 1:5000 dilution of horseradish-peroxidase conjugated goat anti-rabbit antiserum was added, and the membranes further incubated for 1 h at room temperature. Proteins were visualized using the Supersignal West Pico Chemiluminescent Substrate system (Pierce, Fenton, Mo.) and molecular weights determined by comparison to protein ladders (BenchMark, Invitrogen, and Kaleidoscope, BioRad). Film images were digitized and analyzed using a UVP phosphoimager.

[8] = Blood stability studies; format: in vitro ADME, rat; conditions: rat, heparinized whole blood, heparinized rat blood, 37° C., single phase exponential decay; read-out: stability t1/2 in blood
Experimental: At the end of each incubation, 20 μL of Nle^1-AngIV (100 μg/mL) was added to each sample as an internal standard. […] All samples were centrifuged at 4° C., 2300× g for 5 min and the supernatants were transferred to clean tubes.
Samples were then separated by HPLC on an Econosphere C18 (100 mm×2.1 mm) from Grace Davison Discovery Science (Deerfield, Ill.). […] The mobile phase consisted of HPLC water (Sigma St. Louis, Mo.) with 0.1% trifluoroacetic or 0.1% heptafluorobutyric acid (Sigma St. Louis, Mo.) and varying concentrations of ACN or methanol. Separation was carried out using a gradient method, at ambient temperature and a flow rate of 0.3 mL/min (see below for more information). Stability half-lives were determined assuming a normal single phase exponential decay using Prism 5 graphical/statistical program (GraphPad, San Diego, Calif.).

[9] = system: MDCK cells; assay: HGF-dependent MDCK cell proliferation (MTT); format: cell-based, canine; conditions: 10^−10 M, 4 days, HGF 10 ng/ml
Experimental: 5000 MDCK cells were seeded into the wells of a 96 well plates in 10% FBS DMEM. To induce cellular quiescence, the cells were serum deprived for 24 h prior to initiating the treatments. Following serum starvation, 10 ng/ml HGF alone and with various concentrations of 6-AH analogs or PBS vehicle were added to the media. The cells were allowed to grow under these conditions for 4 days with a daily addition of 6-AH analogs. On the fourth day, 1 mg/ml of 1-(4, 5-Dimethylthiazol-2-yl) 3, 5-diphenylformazan reagent (MTT, Sigma-Aldrich) prepared in PBS was added to the cells and incubated for 4 h. Dimethyl sulfoxide diluted in a 0.01M glycine buffer was added to solubilize the cell membranes and the absorbance of reduced MTT in the buffer was quantitated at 590 nm using a plate reader (Biotek Synergy 2, Winooski, Vt.). HGF-dependent proliferation was determined by subtracting the basal proliferation (in the absence of HGF) from total proliferation rates in groups containing HGF.

Molecule: CN1[C@@H]2C[C@@H](OC(=O)[C@H](CO)c3ccccc3)C[C@H]1[C@@H]1O[C@@H]12 [scopolamine, scopolamine hydrobromide, reference compound]
- mean latency to find the pedestal, final day of training [1]: 84.8 s
- mean latency to find the pedestal, fourth day of training [1]: 102.4 s
- mean latency to find the pedestal, day one of training [1]: 114.7 s

Molecule: DYIRNC (Synthetic hinge peptide) [HGF antagonist peptide representing the dimerization (hinge) domain of HGF; also printed KDYIRN, reference compound]
- mean latency to find the pedestal, final day of training [1]: 46.1 s
- mean latency to find the pedestal, fourth day of training [1]: 78.3 s
- mean latency to find the pedestal, day one of training [1]: 111.1 s
- inhibition of spine formation in stimulated neurons ([2]; neurons stimulated with 10 ng/ml HGF, 10^−12 M Nle1-AngIV or 10^−12 M Dihexa): effectively inhibit spine formation
- effect of Hinge alone on basal spinogenesis ([2]; wide range of doses): no effect on spinogenesis over a wide range of doses
- mean mEPSC frequency [3]: 4.51±0.47
- inhibition of scattering of MDCK cells by Hinge [4]: inhibit scattering of Madin-Darby canine kidney (MDCK) cells

Molecule: CCCC[C@@H](N)C(=O)N[C@@H](CCSC)C(=O)N[C@H](C(=O)NCCCCCC(N)=O)[C@@H](C)CC [D-Nle-Met-Ile-NH—(CH2)5—CONH2] (H-[dNle]MI[Ahx]-NH2)
- affinity for HGF (in words) [5]: low affinity for HGF
- inhibition of HGF dimerization [6]: unable to block dimerization at the concentration tested
- inhibition of HGF-dependent Met phosphorylation [7]: no ability to effect on Met activation
- inhibition of HGF-dependent Met phosphorylation ([7]; listed as Met): not different than the HGF group
- inhibition of HGF-dependent scattering in MDCK cells [4]: not different

Molecule: Nle-YIH-amide
- dendritic spine numbers ([2]; 10^-8 and 10^-10 M): increased spine numbers

Molecule: [GABA]-Tyr-Ile [GABA-YI]
- time in the target quadrant, day 9 probe trial ([1]; analog 1 nmol icv after scopolamine): different than all the other treated groups
- dendritic spine numbers ([2]; 10^-8 and 10^-10 M): increased spine numbers

Molecule: CCCC[C@H](N)C(=O)N[C@@H](Cc1ccc(O)cc1)C(=O)N[C@H](CN[C@@H](Cc1c[nH]cn1)C(=O)N1CCC[C@H]1C(=O)N[C@@H](Cc1ccccc1)C(=O)O)CC(C)C [Norleual, Nle-Tyr-Leu-Ψ-(CH2—NH2)^3-4-His-Pro-Phe, reference compound]
- half-life [8]: < 5 min

Molecule: acetyl-Nle-YIH
- dendritic spine numbers ([2]; 10^-8 and 10^-10 M): increased spine numbers
- dendritic spine numbers ([2]; concentrations lower than 10^-10 M): increasing spine numbers at even lower concentrations

Molecule: CCCC[C@@H](N)C(=O)N[C@@H](Cc1c[nH]c2ccccc12)C(=O)N[C@H](C(=O)NCCCCCC(N)=O)[C@@H](C)CC [D-Nle-Trp-Ile-NH—(CH2)5—CONH2] (H-[dNle]WI[Ahx]-NH2)
- affinity for HGF (in words) [5]: moderate affinity for HGF
- inhibition of HGF dimerization [6]: intermediate inhibition of dimerization
- inhibition of HGF dimerization ([6]; listed as Trp): statistically different than the HGF treated group
- inhibition of HGF-dependent Met phosphorylation [7]: intermediate inhibitory activity
- inhibition of HGF-dependent MDCK cell proliferation [9]: inhibitory activity, albeit less than that observed with the most potent analogs
- inhibition of HGF-dependent scattering in MDCK cells [4]: different from the HGF alone group but not different from the control group
